Usually IC50 stands for the concentration that gives 50% inhibition.

One compound from US11685714B2, “Prodrugs of cytotoxic active agents having enzymatically cleavable groups” (BAYER PHARMA AKTIENGESELLSCHAFT, priority 2016, dated 2023) can be followed below.

For series [1], the system named is NCI-H292: human mucoepidermoid lung carcinoma cells. Put plainly: MTT assay on NCI-H292. The class given is cell-based. Particulars: NCI-H292, 96 h, growth inhibition, 96 h incubation. On the procedure: The analysis of the cytotoxic effects of the ADCs was carried out with various cell lines:
The cells were cultivated by the standard method as stated by the American Tissue Culture Collection (ATCC) or the Leibniz-lnstitut DSMZ-Deutsche Sammlung von Mikroorganismen und Zellkulturen GmbH (DSMZ) for the cell lines in question.
The cells were then incubated in an incubator at 37° C. and 5% carbon dioxide. […] To this end, the MTT reagent was incubated with the cells for 4 h, followed by lysis of the cells overnight by addition of the detergent. […] The measured data were used to calculate the ICo50 of the growth inhibition using the DRC (dose response curve). The proliferation of cells which were not treated with test substance but were otherwise identically treated was defined as the 100% figure.

Series [2] addresses T1, motor domain of the human kinesin spindle protein KSP/Eg5 (Homo sapiens, UniProt P52732).
T1 construct: The motor domain of the human kinesin spindle protein KSP/Eg5; purchased tebu-bio/Cytoskeleton Inc 027EG01-XL
T1 sequence (P52732 18-359 limits assumed): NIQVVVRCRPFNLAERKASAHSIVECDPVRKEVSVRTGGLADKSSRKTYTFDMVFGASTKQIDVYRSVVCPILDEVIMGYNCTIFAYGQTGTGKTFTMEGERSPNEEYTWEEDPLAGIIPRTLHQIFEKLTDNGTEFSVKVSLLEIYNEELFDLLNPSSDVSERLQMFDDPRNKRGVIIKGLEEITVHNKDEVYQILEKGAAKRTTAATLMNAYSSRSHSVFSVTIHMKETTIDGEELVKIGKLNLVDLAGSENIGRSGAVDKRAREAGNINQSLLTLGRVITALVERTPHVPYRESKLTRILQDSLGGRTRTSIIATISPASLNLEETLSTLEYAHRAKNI
Put plainly: Inhibition of the kinesin spindle protein KSP/Eg5 (ATPase activity, malachite green). It counts as biochemical. The note with it: 10 nM KSP/Eg5, microtubuli, 500 μM ATP, 2 h at RT. On the procedure:
The motor domain of the human kinesin spindle protein KSP/Eg5 (tebu-bio/Cytoskeleton Inc, No. 027EG01-XL) was incubated in a concentration of 10 nM with microtubuli (bovine or porcine, tebu-bio/Cytoskeleton Inc) stabilized with 50 μg/ml taxol (Sigma No. T7191-5MG) for 5 min at RT in 15 mM PIPES, pH 6.8 (5 mM MgCl2 and 10 mM DTT, Sigma). […] Incubation was at RT for 2 h. ATPase activity was detected by detecting the inorganic phosphate formed using malachite green (Biomol). […] The positive controls used were monastrol (Sigma, M8515-1 mg) and ispinesib (AdooQ Bioscience A10486). The individual data of the dose-activity curve are eight-fold determinations. The IC50 values are means of two independent experiments.

The target of series [3] is T2, recombinant human legumain (Homo sapiens, UniProt Q99538).
T2 construct: purchased R&D Systems 2199-CY
T2 sequence (Q99538 26-323 limits assumed): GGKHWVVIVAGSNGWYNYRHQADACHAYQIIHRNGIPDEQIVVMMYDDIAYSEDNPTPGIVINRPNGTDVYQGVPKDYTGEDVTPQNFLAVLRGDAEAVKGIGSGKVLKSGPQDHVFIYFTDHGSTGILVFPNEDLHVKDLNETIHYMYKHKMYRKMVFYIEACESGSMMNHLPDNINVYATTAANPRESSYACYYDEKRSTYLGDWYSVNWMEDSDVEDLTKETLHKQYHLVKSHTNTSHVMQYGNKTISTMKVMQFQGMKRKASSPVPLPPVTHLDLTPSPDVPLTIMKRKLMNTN
Kind of series: Legumain assay (cleavage of legumain-cleavable prodrugs). The note with it: within 24 h; rh legumain, pH 5.0. It counts as biochemical. On the procedure: The legumain assay was conducted with recombinant human enzyme. The rh legumain enzyme solution (catalogue #2199-CY, R&D Systems) was diluted to the desired concentration in 50 mM Na acetate buffer/100 mM NaCl, pH4.0 and preincubated at 37° C. for 2 h. rh legumain was then adjusted to a final concentration of 1 ng/μl in 50 mM MES buffer, 250 mM NaCl, pH 5.0. For every legumain-cleavable prodrug to be examined, a mixture was made up in a micro reaction vessel (0.5 ml, from Eppendorf). For this purpose, the substrate solution was adjusted to the desired concentration (double concentration) with 50 mM MES buffer, 250 mM NaCl, pH 5.0. For the kinetic measurement of the enzymatic reaction, 250 μl of the legumain solution were first initially charged and the enzyme reaction was started by adding 250 μl of the substrate solution (final concentration: single concentration). At different times, 50 μl samples were taken. This sample was admixed immediately with 100 μl of ice-cold methanol in order to stop the enzymatic reaction and then frozen at −20° C. The times selected for sampling were after 0.5 h, 1 h, 3 h and 24 h. The samples were then analysed by means of RP-HPLC analysis and by LC-MS analysis. The determination of the toxophor released enabled the determination of the half-life t½ of the enzymatic reaction (FIG. 1). […]

Series [4] is described as follows: Stability in rat liver lysosomes (chapter C1c). It counts as in vitro ADME.

Turning to `CNC(=O)[C@H](CCN(C(=O)CO)[C@@H](c1cc(-c2cc(F)ccc2F)cn1Cc1ccccc1)C(C)(C)C)NC(=O)[C@H](CC(N)=O)NC(=O)[C@@H](C)NC(=O)[C@H](C)NC(=O)Cc1ccncc1` [Example R3r-LDL, N-(Pyridin-4-ylacetyl)-L-alanyl-D-alanyl-N^1-[(2S)-4-[{(1R)-1-[1-benzyl-4-(2,5-difluorophenyl)-1H-pyrrol-2-yl]-2,2-dimethylpropyl}(glycoloyl)amino]-1-(methylamino)-1-oxobutan-2-yl]-L-aspartamide], the IC50 in series [1] is 190 nM; in series [2] it was 264 nM. Besides, in series [3], the “extent of cleavage to the target compound by legumain” value is “about 20%”. For the same compound, in series [4], the “stability in rat liver lysosomes (in words)” value is recorded as “high stability”.
